Experimental data: patent publication US8119400B2, “Methods of inhibiting smooth muscle cell migration and proliferation” (Beth Isreal Deaconess Medical Center, Inc., priority 2005, dated 2012)
“Also recorded” adds a separate entry of the source. No end group written: not given here. *: point of attachment. Myristoyl = CCCCCCCCCCCCCC(=O)*; {P} = phosphate

What was measured:
[1] = system: VSMCs in human saphenous vein; assay: Proliferation after ex vivo siRNA transfection of whole vein; assay type: cell-based; conditions: 100 nM, three days after transfection, vs control siRNA
[2] = system: MARCKS mRNA; assay: MARCKS mRNA knockdown after lipofection, HVSMCs (qRT-PCR); assay type: cell-based, human; conditions: 100 nM, 24 hours after lipofection
Experimental: (§1) MARCKS knockdown was achieved by lipofection of HVSMCs and HECs with MARCKS siRNA. Lipofection was performed using the DharmAFECT1 transfection reagent (Dharmacon) for 24 hours in serum- and antibiotic-free media as per manufacturer's protocol.
(§2) Evaluation of target gene mRNA knockdown after siRNA delivery was analyzed using a Stratagene MX3000P real time PCR (qRT-PCR) machine (Stratagene, La Jolla, Calif.). Total RNA was extracted from plate wells using RNeasy spin columns (Qiagen, Valencia, Calif.) and cDNA was prepared from […] using the iScript cDNA synthesis kit (Bio-Rad, Hercules, Calif.) prior to thermal cycling. For quantitative analysis, target gene levels were normalized to 18s or B2M levels as previously described (Bustin, S A et al. (2004) J. Mol. Endocrinol. 29(1):23-39), and target and housekeeper gene amplification reactions were performed in triplicate for each cDNA sample using 1 μl cDNA per reaction. […]
(§3) Thermal cycling was performed under the following conditions: Stage 1: 10 minutes at 95° C.; Stage 2 (40 cycles): 30 seconds at 95° C., 1 minute at 60° C., 30 seconds at 72° C. The Comparative Quantification software tool was used to compare normalized gene levels from cells transfected with targeting siRNA vs. non-targeting control siRNA (calibrators). […]

[3] = system: MARCKS mRNA; assay: MARCKS mRNA knockdown after lipofection, HECs (qRT-PCR); assay type: cell-based, human; conditions: 5 nM, 24 hours after lipofection
Experimental: as §1, §2, §3

[4] = system: MARCKS protein; assay: MARCKS protein Western blot, HVSMCs; assay type: cell-based, human; conditions: 100 nM, 3 days after lipofection
Experimental: as §1
(§4) Cell extracts were recovered from 6-well plates after siRNA lipofection and analyzed by sodium dodecyl sulfate-polyacrylamide gel electrophoresis (SDS-PAGE) and Western blotting with the use of standard techniques. Antibodies used for protein detection were: mouse monoclonal anti-GAPDH (1:10,000 dilution, Ambion), goat polyclonal anti-MARCKS (N-19) IgG (1:100 dilution, Santa Cruz Biotechnology, Santa Cruz, Calif.), mouse monoclonal anti-p27^kip-1 (1:250 dilution, Pharmingen, San Diego, Calif.) and mouse anti-β-tubulin IgM (clone 5H1) (1:250 dilution, Pharmingen, San Diego, Calif.). Secondary antibodies used were peroxidase-conjugated goat anti-mouse IgG (H+L) (1:1,000-1:5,000 dilution, Chemicon International, Temecula, Calif.) and peroxidase-conjugated rabbit anti-goat IgG (H+L) (1:500 dilution, Bio-Rad). Densitometry was performed using Adobe Photoshop 6.0 or NIH Image J 1.34.

[5] = system: MARCKS protein; assay: MARCKS protein Western blot, HECs; assay type: cell-based, human; conditions: 25 nM, 3 days after lipofection
Experimental: as §1, §4

[6] = system: HVSMCs; assay: Fluoroblok migration assay, HVSMCs; assay type: cell-based, human; conditions: 100 nM, 3 days after lipofection, 30% FBS
Experimental: The migratory and proliferative abilities of HVSMCs and HECs were assessed after MARCKS knockdown using migration and proliferation assays. Phenotypic analysis of HVSMC migration was performed using the Fluoroblok migration assay (BD Biosciences, San Jose, Calif.) to measure the ability of calcein-AM fluorescently-labeled cells to migrate through a PET membrane with […] towards a chemotactant stimulus of 30% FBS. Briefly, VSMCs were incubated in 10 μM calcein-AM (Invitrogen) for 1 hour, trypsinized, and resuspended in serum-free VSMC media. In this assay, the upper chamber of the Transwell insert is separated from the lower chamber by a fluorescently opaque polyethyleneterephthalate (PET) membrane with 8 μm pores at the base of the insert. Approximately 50,000 VSMCs were loaded in each of the upper wells. The lower wells contained media supplemented with serum-free VSMC media, VSMC media with 30% FBS, or EC-conditioned media to stimulate cell migration. At time 0, the upper chambers were read at an excitation of 485 nm and an emission of 535 nm on a Biotek Fluorometer FLX800 (BioTek Instruments) and returned to the incubator. After 24 hours, the lower chambers were read with the same settings. The proportion of cells migrated were calculated by dividing the fluorescent intensity after 24 hours by the intensity read at time 0. […]

[7] = system: HECs; assay: Fluoroblok migration assay, HECs; assay type: cell-based, human
[8] = system: HVSMCs; assay: alamarBlue proliferation assay, HVSMCs; assay type: cell-based, human
Experimental: Phenotypic analysis of vascular cell proliferation was performed using the alamarBlue assay (Trek Diagnostics, Cleveland, Ohio), as previously described (Voytik-Harbin, SL et al. (1998) In Vitro Cell Dev. Biol. Anim. 34(3):239-246), to quantitate total cellular metabolic activity in the wells of tissue culture plates. Briefly, HVSMCs were plated on 24-well plates at a density of 10,000 cells per well and grown for 24 hours in normal cell media. Afterwards, a Day 0 measurement of fluorescent intensity after 4 hour incubation with the alamarBlue reagent was obtained prior to siRNA lipofection. 24 hour siRNA lipofection in serum-free media served as the starvation period to synchronize cells in the cell cycle, followed by the application of media with 30% FBS to stimulate proliferation. AlamarBlue assays were performed every two days, followed by the reapplication of fresh media with 30% FBS. For analysis, the fluorescence intensity of each well was determined using an LS-5B Luminescence Spectrometer (PerkinElmer) at excitation and emission wavelengths of 509 and 590 nm, respectively, and was divided by the value obtained at Day 0 to generate a measure of relative proliferation.

[9] = system: HECs; assay: alamarBlue proliferation assay, HECs; assay type: cell-based, human; conditions: 25 nM
[10] = system: p27^kip1; assay: p27kip1 Western blot after MARCKS knockdown, HVSMCs; assay type: cell-based, human; conditions: 25 nM, 24 hours post-induction with 30% FBS, GAPDH corrected densitometry
Experimental: (§5) To investigate the differential effects of MARCKS knockdown on the proliferation of vascular cells, Western blots were performed to assess p27^kip1 expression after the induction of proliferation in HVSMCs and HECs. To assess p27^kip1 expression in the setting of MARCKS knockdown, HVSMC and HECs were transfected with 25 nM Control (C) or MARCKS (M) siRNA followed by 48 hour starvation in media with 0.1% FBS to synchronize cells in the Go phase of the cell cycle. Proliferation was then induced by the addition of media with 30% FBS and cells were lysed 24 hours post-induction for protein harvest and Western blot analysis.
as §4, with “Secondary antibodies used were peroxidase-conjugated goat anti-mouse IgG (H+L) (1:1,000-1:5,000 dilution, Chemicon International, Temecula, Calif.) and peroxidase-conjugated rabbit anti-goat IgG (H+L) (1:500 dilution, Bio-Rad). Densitometry was performed using Adobe Photoshop 6.0 or NIH Image J 1.34.” left out

[11] = system: p27^kip1; assay: p27kip1 Western blot after MARCKS knockdown, HECs; assay type: cell-based, human; conditions: 25 nM, 24 hours post-induction with 30% FBS, GAPDH corrected densitometry
Experimental: as §5
as §4, with “Secondary antibodies used were peroxidase-conjugated goat anti-mouse IgG (H+L) (1:1,000-1:5,000 dilution, Chemicon International, Temecula, Calif.) and peroxidase-conjugated rabbit anti-goat IgG (H+L) (1:500 dilution, Bio-Rad). Densitometry was performed using Adobe Photoshop 6.0 or NIH Image J 1.34.” left out

[12] = system: MARCKS mRNA; assay: Rapid siRNA transfection, MARCKS mRNA knockdown, HVSMCs; assay type: cell-based, human; conditions: 10 minutes, 2000 cells per well
Experimental: (§6) To more rigorously study the effects of pressure on gene silencing in vascular cells and develop an in vitro model for rapid siRNA transfection, a chamber that could hold standard tissue culture plates and be pressurized with wall air was fabricated. HVSMCs and HECs were seeded in 96-well plates at a density of 6,000 cells/cm^2 and were treated with Control or MARCKS siRNA suspended in normal saline solution, without the addition of a transfection reagent, at concentrations from 1-25 μM in either water, lactate ringers solution (Baxter, Deerfield, Ill.), normal saline (Baxter), cell media, or Plasmalyte A (Baxter) supplemented with 12 mg/ml papaverine hydrochloride and 4 units/ml heparin sodium (LoGerfo, FW et al. (1984) Arch. Surg. 119(10):1212-1214). First, siRNA solutions were applied to one plate of each cell type and rapid siRNA transfection was performed by placing cells in the specially-designed pressure chamber for 10 minutes while raising the ambient pressure by 0-1 ATM using wall air. Cells were then removed from the chamber and the siRNA solution was promptly aspirated and replaced with fresh media prior to returning the plates to the incubator. Parallel plates were subjected the same siRNA treatment and placed in the chamber for 10 minutes without pressurization.
(§7) Evaluation of target gene mRNA knockdown was performed as described in Example 8 above.

[13] = system: MARCKS mRNA; assay: Rapid siRNA transfection, MARCKS mRNA knockdown, HECs; assay type: cell-based, human; conditions: 10 minutes, 2000 cells per well
Experimental: as §6, §7

[14] = system: VSMCs; conditions: 100 μM, 24 hours, FBS and TNF-α stimulus
Experimental: To assess cellular migration, a fluorescent migration assay (BD Biosciences, San Jose, Calif.) was utilized. In this assay, VSMC's grown in culture were labeled with 1 μM calcein. Approximately 50,000 cells, suspended in serum free media, were loaded onto a 0.3 cm^2 insert. The surface of the insert is a fluorescently-opaque polyethylene terephthalate (PET) membrane with 8 μm pores that are sufficiently large to permit cells to migrate across its surface. The insert was placed in a tissue culture plate with a chemotactic stimulus, TNF-α, in the lower well, which contained media with 30% FBS and TNF-A at a concentration of 200 Units/ml. Immediately after the inserts were placed into the respective wells, the wells were excited at a wavelength of 485 nm and the fluorescence emission was read at 535 nm. At the order of magnitude of cells that were used, the fluorescence is proportional to cell number in a linear relationship. After 24 hours, the plate was excited a second time and emission at 535 nm was read. Fluorescence was read only from the bottom well, such that only cells that have migrated contribute to the measured fluorescence. The proportion of cells that migrated was determined by dividing the fluorescence of the bottom of the wells at 24 hours by the initial fluorescence from the top of the wells at the time of plating. […]

[15] = system: VSMCs; conditions: 100 μM, after 5 days of serum stimulation
Experimental: When it is reduced, it emits fluorescence at 590 nm. Therefore, emission at 590 nm was used as a marker for relative cellular proliferation. Cells were incubated in the dark in media containing 10% alamarBlue (BioSource International, Carmilla, Calif.) and 10% FBS for four hours. After incubation, 1 ml of media from the incubated cells was mixed with 1 ml of media containing 10% FBS and the emission at 590 nm was recorded.
A time-zero alamarBlue Assay was performed after a 12-hour period of starvation to assure equal cell loading and synchronization in the cell cycle. The cells were incubated with predetermined concentrations of the PKC inhibitor, 20-28. Cells were incubated in media with 30% FBS for a total of 24 hours. At that point, alamarBlue assays were performed at predetermined intervals. After each assay was completed, the media was replenished with media containing 30% FBS. As in the migration assay, an unstimulated, negative control with standard media was assayed.
To inhibit the effects of MARCKS activity, cells in culture were treated with the protein kinase C inhibitor 20-28 (Calbiochem, La Jolla, Calif.). […] Eichholtz, T. et al. (1993) J. Biol. Chem. 268:1982-1986.

Row | Substance | effect on proliferation in transfected vein [1] | MARCKS mRNA knockdown [2] | MARCKS mRNA knockdown [3] | MARCKS protein knockdown (Western blot) [4] | MARCKS protein knockdown (Western blot) [5] | cellular migration, % of controls [6] | effect on cellular migration ([7]; 25 nM (FIG. 14B also 10 nM), vs control siRNA) | relative cellular migration ([7]; 25 nM, 5% FBS with 200 ng/ml VEGF) | effect on HVSMC proliferation ([8]; 25 nM (FIG. 15A: 25, 50 and 100 nM), vs control scrambled siRNA) | proliferation, fold increase at day 6 ([8]; HVSMCs, 25 nM, 30% FBS, relative to Day 0) | effect on HEC proliferation ([9]; full MARCKS knockdown) | proliferation, fold increase at day 6 ([9]; HECs, relative to Day 0) | increase in p27^kip1 protein expression relative to controls [10] | increase in p27^kip1 protein expression relative to controls [11] | MARCKS knockdown ([12]; 0 ATM) | MARCKS knockdown ([12]; 0.4 ATM) | MARCKS knockdown ([13]; 0 ATM) | MARCKS knockdown ([13]; 0.4 ATM) | proportion of cells migrated across the membrane [14] | emission at 590 nm (alamarBlue) [15]
1 | MARCKS siRNA: siRNA, sense 5′-GGU-GCC-CAG-UUC-UCC-AAG-AUU-3′ (SEQ ID NO. 18), anti-sense SEQ ID NO. 19 with 5′ phosphate (sense GGUGCCCAGUUCUCCAAGAUU; antisense UCUUGGAGAACUGGGCACCUU; sense: chemistry not given here; antisense: 5' {P}, sugars by position and backbone not given here) | reduced proliferation | 54±2% | 89±1% | complete knockdown | complete knockdown | 68±7% | no significant effect; also recorded: no significant difference | 1.0±0.7 | near complete arrest | 1.41±0.36 fold | only a minimal effect | 1.90±0.06 fold | 3.2 fold | 1.8 fold | 0±12% | 41±12% | 22±17% | 53±10% |  | 
2 | Myristoyl-FARKGALRQ [20-28] |  |  |  |  |  |  |  |  |  |  |  |  |  |  |  |  |  |  | 6.9%±1.5% | 58.0±12.1
